This note sets out measurements from paper PMC5357622, “Chelation Motifs Affecting Metal-dependent Viral Enzymes: N′-acylhydrazone Ligands as Dual Target Inhibitors of HIV-1 Integrase and Reverse Transcriptase Ribonuclease H Domain” (Frontiers in Microbiology, 2017).

“And” between values parts separate entries of the source, which are not always exact repeats. Equal entries are not always repeated. Bounds are passed on as bounds.

The target of series [1] is T1, HIV-1 RT-associated RNase H (Human immunodeficiency virus type 1 group M subtype B, UniProt P03366).
T1 construct: Human immunodeficiency virus type 1 heterodimeric RT was expressed and purified; made in house
Briefly: HIV-1 RT-associated RNase H assay (fluorescent RNA/DNA hybrid). The series is classed as biochemical. The procedure: Human immunodeficiency virus type 1 heterodimeric RT was expressed and purified as previously described ([Esposito et al., 2011]; [Meleddu et al., 2014]). The HIV-1 RT-associated RNase H activity was measured as described ([Corona et al., 2014a]; [Meleddu et al., 2015]). Briefly, 20 ng of HIV-1 RT was incubated in 100 μL reaction volume containing 50 mM Tris-HCl (pH 7.8), 6 mM MgCl2, 1 mM DTT, 80 mM KCl, hybrid RNA/DNA (5′-[…]-3′-Fluorescein, 5′-[…]-3′-Dabcyl) and 2 nM RT. The reaction mixture was incubated for 1 h at 37°C; the reaction was stopped by addition of EDTA and products were measured with a Victor 3 (Perkin Elmer model 1420-051) equipped with filters for 490/528 nm (excitation/emission wavelength).

Series [2] has as its target HIV-1 IN in presence of LEDGF/p75 (Human immunodeficiency virus type 1 group M subtype B, UniProt P03366). The experiment in a line: HIV-1 IN/LEDGF HTRF LEDGF-dependent integration assay.
Description: The IN-LEDGF/p75 dependent assay allows to measure the inhibition of 3′ processing and strand transfer IN reactions in presence of recombinant LEDGF/p75 protein, as previously described ([Tintori et al., 2015]). Briefly, 50 nM IN was pre-incubated with increasing concentration of compounds for 1 h at room temperature in reaction buffer containing 20 mM HEPES pH 7.5, 1 mM DTT, 1% glycerol, 20 mM MgCl2, 0.05% Brij-35 and 0.1 mg/ml BSA. DNA donor substrate, DNA acceptor substrate and 50 nM LEDGF/p75 protein were added and incubated at 37°C for 90 min. After the incubation, 4 nM of Europium-Streptavidin were added to the reaction mixture and the HTRF signal was recorded using a Perkin Elmer Victor 3 plate reader using a 314 nm for excitation wavelength and 668 and 620 nm for the wavelength of the acceptor and the donor substrates emission, respectively.
The next series is described as follows: in vitro. The series is classed as cell-based. Conditions: human. The procedure: (§1) The procedure to determine anti-HIV activity and cytotoxicity of the compounds in human lymphocyte MT-4 cells was published elsewhere ([Pannecouque et al., 2008]). Briefly, serial dilutions of the compounds were added to 96-well plates containing the MT-4 cells. To the virus-infected wells, 100–300 CCID50 (50% cell culture infectious dose-50%) of HIV-1 (strain IIIB) or HIV-2 (strain ROD) was added. The mock-infected wells received the compounds without the virus. After 5 days incubation, the spectrophotometric MTT assay was performed to determine the effect of the compounds on the viability of the mock- and HIV-infected cells.

The next series relates to HIV-1 (strain IIIB). Briefly: Cell-based HIV assay in MT-4 cells (MTT, virus-induced cytopathic effect). The settings on record: Human immunodeficiency virus 1, IIIB. The procedure: as §1

Sequence of HIV-1 IN in presence of LEDGF/p75 (O75475 whole entry, other chains not shown): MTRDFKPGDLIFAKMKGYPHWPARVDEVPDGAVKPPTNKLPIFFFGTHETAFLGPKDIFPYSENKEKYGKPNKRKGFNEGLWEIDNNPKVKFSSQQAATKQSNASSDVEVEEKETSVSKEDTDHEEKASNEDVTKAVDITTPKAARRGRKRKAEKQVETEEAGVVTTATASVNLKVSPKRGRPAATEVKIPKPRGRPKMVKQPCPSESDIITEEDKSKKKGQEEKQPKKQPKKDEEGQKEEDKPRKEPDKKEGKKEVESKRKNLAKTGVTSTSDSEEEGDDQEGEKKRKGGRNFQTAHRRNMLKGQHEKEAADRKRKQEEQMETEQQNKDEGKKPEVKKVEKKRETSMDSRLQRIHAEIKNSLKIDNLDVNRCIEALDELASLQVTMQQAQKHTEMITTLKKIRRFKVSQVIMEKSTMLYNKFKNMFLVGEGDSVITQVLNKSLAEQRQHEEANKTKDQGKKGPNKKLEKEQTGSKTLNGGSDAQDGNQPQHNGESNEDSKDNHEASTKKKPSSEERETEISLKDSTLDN

On to `CCCCCCCC(=O)N/N=C/c1cccc(O)c1O` [Compound 1, N′-2,3-dihydroxy benzylidene heptyl hydrazone], for which the IC50 in series [1] is ~60 µM and 61 µM; in series [2] it was > 100 µM.
On to `CCCCCCCC(=O)N/N=C/c1cccc(OC)c1O` [Compound 2], for which, in series [1], the IC50 is ~60 µM and 62 µM.
Regarding `O=C(N/N=C/c1cccc(O)c1O)c1ccccc1` [Compound 3], in series [1], the “HIV-1 RNase H IC50” value is reported as “completely abolished” and the IC50 was > 100 µM. The concentration for half-maximal inhibition (IC50) in series [2] was > 100 µM.
For the molecule `COc1cccc(/C=N/NC(=O)c2ccccc2)c1O` [Compound 4], in series [1], the “HIV-1 RNase H IC50” value is “completely abolished” and the IC50 is > 100 µM.
In the case of `O=C(N/N=C/c1cccc(O)c1O)c1ccccc1O` [Compound 5], in series [1], the “HIV-1 RNase H IC50” value was “No inhibition” and the IC50 is > 100 µM.
For `COc1cccc(/C=N/NC(=O)c2ccccc2O)c1O` [Compound 6], the IC50 in series [1] was 37 ± 5 µM; in series [2] it was > 100 µM.
On to `O=C(N/N=C/c1ccc(O)c(O)c1O)c1ccccc1O` [Compound 7], for which the IC50 in series [1] was 25 µM and 25.3 µM; in series [2] it was 7.1 ± 0.2 µM.
Take `O=C(N/N=C/c1cc(O)c(O)cc1O)c1ccccc1O` [Compound 8]: the values for the IC50 in series [1] and in series [2] were 8.8 ± 3.1 µM and 30 ± 1 µM, respectively.
With `O=C(N/N=C/c1c(O)cc(O)cc1O)c1ccccc1O` [Compound 9], the results for the IC50 in series [1] and in series [2] were 9.6 ± 3.4 µM and 9.4 ± 0.4 µM, respectively.
For `O=C(N/N=C/c1cc(O)c(O)c(O)c1)c1ccccc1O` [Compound 10] the same measures were 4.1 ± 0.2 µM and > 100 µM.
Turning to `O=C(N/N=C/c1ccccc1)c1cc(O)c(O)c(O)c1` [Compound 11], the IC50 in series [1] was 2.6 ± 0.6 µM; in series [2], > 100 µM.
For `O=C(N/N=C/c1ccccn1)c1cc(O)c(O)c(O)c1` [Compound 12] the same measures were 3.2 ± 0.5 µM and > 100 µM.
As for `O=C(N/N=C/c1ccccc1O)c1cc(O)c(O)c(O)c1` [Compound 13], the IC50 in series [1] is 2.3 ± 0.7 µM; in series [2] it was > 100 µM.
`O=C(N/N=C/c1cccc(O)c1O)c1cc(O)c(O)c(O)c1` [Compound 14]: the half-maximal inhibitory concentration (IC50) in series [1] was 3.1 ± 0.5 µM; in series [2] it was > 100 µM.
For `COc1cccc(/C=N/NC(=O)c2cc(O)c(O)c(O)c2)c1O` [Compound 15], the IC50 in series [1] was 0.92 ± 0.02 µM; in series [2], > 100 µM.
In the case of `O=C(N/N=C/c1cc(O)ccc1O)c1cc(O)c(O)c(O)c1` [Compound 16], the values for the IC50 in series [1] and in series [2] were 2.1 ± 0.1 µM and 69 ± 5 µM, respectively.
For `COc1ccc(O)c(/C=N/NC(=O)c2cc(O)c(O)c(O)c2)c1` [Compound 17] the same measures were 2 ± 0.5 µM and > 100 µM.
`O=C(N/N=C/c1ccc(O)cc1O)c1cc(O)c(O)c(O)c1` [Compound 18]: the IC50 turned out to be 1.7 ± 0.1 µM in series [1] and 16 ± 3 µM in series [2]. Moreover, in series [1] (RNase H versus IN), the “RNase H inhibition potency relative to IN activity” value was “ninefold more potently”. Besides, the CC50 at 5 days in the series “in vitro” amounted to 61 µM. Besides, the EC50 with HIV-1 (strain IIIB) (MT4, 120 h, read-out: EC50 for HIV-1 (50% protection from virus-induced cytopathic effect), 5 days, mean ± SD of two independent tests) was determined as 17 ± 4 µM. Further, the inhibition at 25 µM in the series with HIV-1 (strain IIIB) (MT4, at a concentration of 25 μM) fell in the range of 55 to 82%.
Consider `COc1cc(C(=O)N/N=C/c2cc(O)ccc2O)cc(OC)c1OC` [Compound 19], for which the IC50 in series [1] and in series [2] was > 100 µM in each case.
On to `O=C(N/N=C/c1ccc(O)c(O)c1O)c1cc(O)c(O)c(O)c1` [Compound 20], for which the IC50 in series [1] was 0.175 µM and 0.17 µM; in series [2], 0.085 ± 0.025 µM.
`O=C(N/N=C/c1cc(O)c(O)cc1O)c1cc(O)c(O)c(O)c1` [Compound 21]: the IC50 turned out to be 0.62 ± 0.1 µM in series [1] and 0.08 ± 0.01 µM in series [2].
For `O=C(N/N=C/c1c(O)cc(O)cc1O)c1cc(O)c(O)c(O)c1` [Compound 22] the same measures were 9.7 ± 1.6 µM and 1.8 ± 0.1 µM.
For `O=C(N/N=C/c1cc(O)c(O)c(O)c1)c1cc(O)c(O)c(O)c1` [Compound 23] the same measures were 0.18 ± 0.03 µM and 0.165 ± 0.025 µM.
As for `CCOC(=O)C(=O)CC(=O)/C=C/c1cccn1Cc1ccc(F)cc1` [RDS1643, reference compound], inhibition in series [1] was half-maximal at 7.5 ± 0.9 µM (IC50).
